What was measured:
[1] = 101 kPa, Liquid; for viscosity: Concentric cylinders viscometry; for mass density: Vibrating tube method
[2] = xn = mol fraction of the nth substance listed; details: 101 kPa, Liquid; for viscosity: Concentric cylinders viscometry; for mass density: Vibrating tube method

CC(=O)[O-].CCCCn1cc[n+](C)c1 [1-butyl-3-methylimidazolium acetate]
[1]
Details	mass density [kg/m3]	viscosity [mPa·s]
293.15 K	1056.1	549.9
303.15 K	1049.6	257.4
313.15 K	1043.5	135.5
323.15 K	1037.4	78.4
333.15 K	1031.3	49
343.15 K	1025.4	32.5
353.15 K	–	22.7

CC(=O)[O-].CCCCn1cc[n+](C)c1 [1-butyl-3-methylimidazolium acetate] + CN(CCO)CCO
[2]
Details	mass density, x2 = 0 [kg/m3]	mass density, x2 = 0.2 [kg/m3]	mass density, x2 = 0.4 [kg/m3]	mass density, x2 = 0.6 [kg/m3]	mass density, x2 = 0.8 [kg/m3]	viscosity, x2 = 0 [mPa·s]	viscosity, x2 = 0.2 [mPa·s]	viscosity, x2 = 0.4 [mPa·s]	viscosity, x2 = 0.6 [mPa·s]	viscosity, x2 = 0.8 [mPa·s]
293.15 K	1056.1	1052.6	1049.5	1046	1043.4	549.9	369.6	254.3	164.4	117.9
303.15 K	1049.6	1046.1	1043	1039.2	1036.4	257.4	188.9	139.8	94.9	68.9
313.15 K	1043.5	1040.1	1037	1033.1	1029.8	135.5	106.6	83.2	58.8	43.1
323.15 K	1037.4	1034.1	1030.9	1026.8	1023.1	78.4	65	52.9	38.7	28.4
333.15 K	1031.3	1028.1	1024.7	1020.5	1016.4	49	42.3	35.6	26.7	19.7
343.15 K	1025.4	1022.3	1018.8	1014.4	1009.8	32.5	29	25.1	19.3	14.2
353.15 K	–	–	–	–	–	22.7	20.7	18.3	14.4	10.6

CC(=O)[O-].CCCCn1cc[n+](C)c1 [1-butyl-3-methylimidazolium acetate] + OCCNCCO
[2]
Details	mass density, x2 = 0 [kg/m3]	mass density, x2 = 0.2 [kg/m3]	mass density, x2 = 0.4 [kg/m3]	mass density, x2 = 0.6 [kg/m3]	mass density, x2 = 0.8 [kg/m3]	viscosity, x2 = 0 [mPa·s]	viscosity, x2 = 0.2 [mPa·s]	viscosity, x2 = 0.4 [mPa·s]	viscosity, x2 = 0.6 [mPa·s]	viscosity, x2 = 0.8 [mPa·s]
293.15 K	1056.1	1058.7	1062.8	1068.8	1079.7	549.9	425	319.4	286.8	400.1
303.15 K	1049.6	1052.2	1056.3	1062.3	1073.1	257.4	208.3	176.1	150.8	197
313.15 K	1043.5	1046.2	1050.3	1056.2	1067	135.5	114	95.9	86.8	106.3
323.15 K	1037.4	1040.1	1044.2	1050.2	1060.7	78.4	68.4	59.2	53.8	62.2
333.15 K	1031.3	1034.1	1038.1	1044.1	1054.4	49	43.9	38.9	35.4	38.9
343.15 K	1025.4	1028.2	1032.2	1038.1	1048.3	32.5	29.8	26.9	24.6	25.8
353.15 K	–	–	–	–	–	22.7	21.3	19.4	17.8	17.9

CN(CCO)CCO [N-methyldiethanolamine]
[1]
Details	mass density [kg/m3]	viscosity [mPa·s]
293.15 K	1040.6	103.3
303.15 K	1032.8	57.3
313.15 K	1025.4	34.1
323.15 K	1017.8	21.6
333.15 K	1010	14.3
343.15 K	1002.3	9.9
353.15 K	–	7.2

CN(CCO)CCO [N-methyldiethanolamine] + CC(=O)[O-].CCCCn1cc[n+](C)c1
[2], x1 = 1
Details	mass density [kg/m3]	viscosity [mPa·s]
293.15 K	1040.6	103.3
303.15 K	1032.8	57.3
313.15 K	1025.4	34.1
323.15 K	1017.8	21.6
333.15 K	1010	14.3
343.15 K	1002.3	9.9
353.15 K	–	7.2

OCCNCCO [diethanolamine]
[1]
Details	mass density [kg/m3]	viscosity [mPa·s]
293.15 K	1097.4	–
303.15 K	1090.5	386.6
313.15 K	1083.9	189.7
323.15 K	1077.1	101.2
333.15 K	1070.3	57.9
343.15 K	1063.5	35.3
353.15 K	–	22.7

OCCNCCO [diethanolamine] + CC(=O)[O-].CCCCn1cc[n+](C)c1
[2], x1 = 1
Details	mass density [kg/m3]	viscosity [mPa·s]
293.15 K	1097.4	–
303.15 K	1090.5	386.6
313.15 K	1083.9	189.7
323.15 K	1077.1	101.2
333.15 K	1070.3	57.9
343.15 K	1063.5	35.3
353.15 K	–	22.7
